Laboratory results from paper PMC12119673, “Apoptotic cell death induced by copper (II), manganese (II) and silver (I) complexes containing bridging dicarboxylate and 1,10-phenanthroline ligands: one of the multi-modes of anticancer activity?” (Biometals, 2025).
Like-named read-outs stand apart in the source and are kept apart here.

Tests used:
Format in all cases: cell-based, human
[1] = tested on: MCF-7 cells; test: In vitro cytotoxicity assessment, alamar blue assay, 24-h exposure
Protocol: The MCF-7 (human breast cancer) and MCF-12A (non-tumourigenic human breast) cell lines were obtained from the Technological University Dublin (TUDublin, City Campus) internal cell bank and commercially from the American Type Culture Collection (ATCC), respectively. Both cell lines were cultured using Dulbecco’s Modified Eagle Medium/Nutrient Mixture F-12 Ham (DMEM-F12) (Sigma, Ireland) (Cat# D6421) media. The MCF-7 media was supplemented with 10% Foetal Bovine Serum (Sigma, Ireland) (Cat# F7524) and 1% L-Glutamine (Sigma, Ireland) (Cat# 592020C). The MCF-12A media was supplemented with 5% Equine Serum (Sigma, Ireland) (Cat# H0146) 1.25% L-Glutamine (Sigma, Ireland) (Cat# 592020C), 20 ng/ml Human Epidermal Growth Factor (Thermo Fisher Scientific, Ireland) (Cat# PHG0313), 0.01 mg/ml insulin (Thermo Fisher Scientific, Ireland)(Cat# 12585014) and 500 ng/ml hydrocortisone (Sigma, Ireland) (Cat# H0888). The cells were grown in T75 culture flasks (Sarstedt, Germany) (Cat# 83.3911.002) and were incubated in a 5% CO2 atmosphere at 37 ℃. […] Following the incubation period, the media was removed, and cells were washed with sterile phosphate-buffered saline (PBS). […] Following the exposure period, the drug-containing media was removed, and cells were washed three times with PBS, ensuring complete removal of the test agents. A 5% working solution of Alamar Blue (Thermo Fisher Scientific, Ireland) (Cat# DAL1100) was prepared in dark conditions using unsupplemented cell culture media. 100 μl of the solution was added to each well, and the cells were incubated for 3 h. […] Each exposure was carried out in triplicate plates and was repeated three independent times. The software packages Microsoft^Ⓡ Excel (USA) and GraphPad Prism (Ver. 10.0.3) (GraphPad, USA) were used to analyse the alamar blue data. The treated sample values were first normalised to the negative control values. After normalisation, the mean and standard deviations (SD) were established using Microsoft^Ⓡ Excel. The statistical analysis package GraphPad was then used to determine the IC25 and IC50 concentrations.

[2] = tested on: apoptotic genes in MCF-7 cells; test: Apoptosis-related gene expression, qRT-PCR; conditions: MCF-7, IC25 concentration, 24 h, relative to negative control
Protocol: (§1) A broad scope of molecular targets involved in the apoptotic pathway were selected for analysis using qRT-PCR including initiators, mediators and inhibitors. These gene targets along with their cellular location and associated primer set are outlined in Table 2. Primer sets for each gene were designed using NCBI nucleotide sequences and the Primer3 application (Table 3). Once designed, the primers were synthesised by Sigma Aldrich, Ireland.
(§2) MCF-7 and MCF-12A cells were seeded at a density of 1 × 10^5 in T25 flasks and incubated for 24 h allowing for attachment. Following incubation, the seeding media was removed, and the cells were washed with PBS. […] Post-exposure, RNA was isolated from the cells. Tri-reagent^Ⓡ (Sigma, Ireland) (Cat# T9424) was added to the cells followed by centrifugation at 300 g for 5 min. The RNA was precipitated using chloroform, followed by centrifugation and washing of the pellet using 75% ethanol. The RNA was resuspended in 30 μl of nuclease-free water. The RNA was either used immediately for qRT-PCR or stored at −80 ℃. The RNA from each sample was quantified using the NanoDrop™ 2000 Spectrophotometer (Thermo Fisher Scientific, Ireland). The A260/A230 ratio was measured to ensure the purity of each sample. Prior to cDNA synthesis, all samples were adjusted to a concentration of 100 ng. The RNA was then reverse transcribed into cDNA using the Quanta Biosciences Kit (Quanta Biosciences, USA) (Cat# 95047). Using the SimpliAmp Thermal Cycler (Applied Biosystems; Thermo Fisher Scientific, Ireland), the following settings were applied: 5 min at 22 ℃, 30 min at 42 ℃, 5 min at 85 ℃; samples were then maintained in an indefinite hold at 4 ℃ prior to being used for quantitative real-time PCR. The cDNA templates were amplified and analysed using SYBR™ Green (Fisher Scientific, UK) (Cat#10187094). Using the 7500 fast Real-Time PCR System (Applied Biosystems, USA), the following thermal cycling setting were applied for amplification: Pre-Incubation (1 cycle) 95 ℃, 5 Minutes, 4.4 ℃ ramp; Amplification (45 cycles) 95 °C 10 s ramp 4.4 °C, 60 °C 10 s ramp 2.2 °C, 72 °C 10 s ramp 4.4 °C; Melting Curve (1 cycle) 95 °C 5 s ramp 4.4 °C, 65 °C 1 min ramp 2.2 °C, 97 °C continuous ramp 0.11 °C acquisition 10 per °C; Cooling (1 cycle) 40 °C 10 s ramp 1.5 °C. Two reference genes, actin and tubulin, were employed to determine the expression of the target genes. No template controls were included to confirm the absence of template contamination and auto-fluorescence. Each PCR plate contained three technical replicates per sample and gene target, with each experiment repeated three independent times using three individual biological replicates.
(§3) qRT-PCR data was analysed by first using the Vandesompele method to calculate the geometric mean of Ct values for the reference genes, actin and tubulin. These values were used for normalisation of the target gene expression values which were then calculated using the Livak and Schmittgen formula: 2^−ΔCt1(test)−ΔCt2(control) (Livak and Schmittgen [2001]; Vandesompele et al. [2002]).
(§4) The expression profiles (Fig. 4) display the log(2) transformed mean expression value for each gene target relative to the negative control. Expression values for each target were determined relative to the geometric means of reference genes. […] Each graph contains a threshold line, set at the value of one, this represents baseline expression levels of genes.

[3] = tested on: apoptotic genes in MCF-12A cells; test: Apoptosis-related gene expression, qRT-PCR; conditions: IC25 concentration, 24 h, relative to negative control
Protocol: as §1, §2, §3, §4

[4] = MCF-7, 24-h exposure, 25% reduction in metabolic activity, mean ± SD (N = 3)
[5] = MCF-7, 24-hour exposure, per one metal centre, mean ± S.D. (N=3)
[6] = MCF-7, 24-hour exposure, per one metal centre, mean ± S.D. (N=3), read-out: IC50 calculated per one metal centre

O=C([O-])CCCCCCC(=O)[O-].[Cu+2].c1cnc2c(c1)ccc1cccnc12.c1cnc2c(c1)ccc1cccnc12 [Complex 2, [Cu(oda)(phen)2]]
Cytotoxic activity IC25 ± SD [1, 4]: 2.04 ± 0.24 µM | IC25 calculated per one metal centre [1, 5]: 2.04 ± 0.24  µM | IC50 [1, 6]: 6.72 ± 0.6 µM | Caspase gene expression (caspase-9, -8, -3) [2]: expressing initiator caspase 9 | Pro-apoptotic gene expression (BID, BIM, BAD, BAX) [2]: upregulated expression of the gene encoding BH3-only protein BID | Caspase gene expression (caspase-9, -8, -3) [3]: expressed caspase 8 | Pro-apoptotic gene expression (BID, BIM, BAD, BAX) [3]: upregulated expression of the gene encoding BH3-only protein BID

O=C([O-])CCCCCCC(=O)[O-].[Ag+].[Ag+].c1cnc2c(c1)ccc1cccnc12.c1cnc2c(c1)ccc1cccnc12.c1cnc2c(c1)ccc1cccnc12 [Complex 4, [Ag2(oda)(phen)3]]
Cytotoxic activity IC25 ± SD [1, 4]: 5.52 ± 0.89 µM | IC25 calculated per one metal centre [1, 5]: 11.04 ± 1.78  µM | Caspase gene expression (caspase-9, -8, -3) [2]: expression of caspase-9 and caspase-3 | Caspase gene expression (caspase-9, -8, -3) [3]: expression of caspase-9 and caspase-3 | Pro-apoptotic gene expression (BID, BIM, BAD, BAX) [3]: significantly elevated BIM and BAD expression

{[Mn2(oda)3(phen)4]^2−[Mn2(oda)(phen)4 (H2O)2]^2+} [Complex 7]
Cytotoxic activity IC25 ± SD [1, 4]: 0.70 ± 0.11 µM | IC50 ([1]; MCF-7, 24-h exposure, 50% reduction in metabolic activity, mean ± SD (N = 3), read-out: Cytotoxic activity IC50 ± SD): 2.79 ± 0.13 µM | IC25 calculated per one metal centre [1, 5]: 2.80 ± 0.44  µM | IC50 [1, 6]: 11.2 ± 0.52 µM | Caspase gene expression (caspase-9, -8, -3) [2]: No caspase activity was observed | Pro-apoptotic gene expression (BID, BIM, BAD, BAX) [2]: expression of both BID and BIM | Caspase gene expression (caspase-9, -8, -3) [3]: Initiator caspase 9 was expressed by MCF-12A cells, but executioner caspase-3 was not found to be expressed | Pro-apoptotic gene expression (BID, BIM, BAD, BAX) [3]: only shown to express BIM

O=C([O-])CCCCCCCCCC(=O)[O-].[Ag+].[Ag+].c1cnc2c(c1)ccc1cccnc12.c1cnc2c(c1)ccc1cccnc12.c1cnc2c(c1)ccc1cccnc12 [Complex 5, [Ag2(udda)(phen)3]]
Cytotoxic activity IC25 ± SD [1, 4]: 5.84 ± 0.12 µM | IC25 calculated per one metal centre [1, 5]: 11.68 ± 0.24  µM | Caspase gene expression (caspase-9, -8, -3) [2]: expression of caspase-9 and caspase-3 | Caspase gene expression (caspase-9, -8, -3) [3]: expression of caspase-9 and caspase-3 | Pro-apoptotic gene expression (BID, BIM, BAD, BAX) [3]: significantly elevated BIM and BAD expression

c1cnc2c(c1)ccc1cccnc12 [Phen, 1,10-Phenanthroline]
IC50 ([1]; Homo sapiens, MCF7, MCF-7, 24-h exposure, 50% reduction in metabolic activity, mean ± SD (N = 3), read-out: Cytotoxic activity IC50 ± SD): 33.2 ± 9.36 µM | Cytotoxic activity IC25 ± SD [1, 4]: 9.02 ± 4.26 µM | IC25 calculated per one metal centre [1, 5]: 9.02 ± 4.26  µM | Caspase gene expression (caspase-9, -8, -3) [2]: all caspases seen to be activated | Pro-apoptotic gene expression (BID, BIM, BAD, BAX) [2]: pro-apoptotic BIM and BAD were upregulated | Caspase gene expression (caspase-9, -8, -3) [3]: all caspases seen to be activated | Pro-apoptotic gene expression (BID, BIM, BAD, BAX) [3]: pro-apoptotic BIM and BAD were upregulated

O=C([O-])CCCCCCC(=O)[O-].[Cu+2].[Cu+2].[O-][Cl+3]([O-])([O-])[O-].[O-][Cl+3]([O-])([O-])[O-].c1cnc2c(c1)ccc1cccnc12.c1cnc2c(c1)ccc1cccnc12.c1cnc2c(c1)ccc1cccnc12.c1cnc2c(c1)ccc1cccnc12 [Complex 1, [Cu2(oda)(phen)4](ClO4)2]
Cytotoxic activity IC25 ± SD [1]: 1.77 ± 0.14 µM | IC50 [1]: 4.76 ± 0.3 µM | IC25 calculated per one metal centre [1, 5]: 3.54 ± 0.28  µM | IC50 [1, 6]: 9.52 ± 0.6 µM | Caspase gene expression (caspase-9, -8, -3) [2]: expressing initiator caspase 9 | Pro-apoptotic gene expression (BID, BIM, BAD, BAX) [2]: upregulated expression of the gene encoding BH3-only protein BID | Caspase gene expression (caspase-9, -8, -3) [3]: expressed caspase 8 | Pro-apoptotic gene expression (BID, BIM, BAD, BAX) [3]: upregulated expression of the gene encoding BH3-only protein BID
